Experimental data taken from patent publication US11414425B2 (priority 2018, dated 2022).

How the values were obtained:
α5β3γ2 GABAA receptors = α5β3γ2 GABAA receptors (Homo sapiens, UniProt P18507+P31644); assay: [3H]Ro15-1788 binding, membranes of Ltk cells stably expressing α5β3γ2 GABAA receptors; conditions: ranges; inhibition of [3H]Ro15-1788 binding
GABAA receptors (α5β2γ2) = target: T1, GABAA receptors (α5β2γ2) (Homo sapiens, UniProt P18507+P31644); assay: Positive allosteric modulator activity: potentiation of EC20 GABA current in oocytes; assay type: cell-based; conditions: read-out: GABA α5 Functional Data (potentiation of EC20 GABA); @ 100 nM; ranges
T1 construct: expressed in transfected cells
Procedure: On day 1, 1 ng/32 nL of GABAA α5β2γ2 cDNA was injected into one oocyte. Test starts on day 2. The cDNA injected to the oocytes was a mix of alpha, beta and gamma, their ratio is 1:1:10 (by weight) and the total weight of the mixed 3 subunits to be injected in one oocyte was 1 ng in 32 nl volume. The injected oocytes can also be tested on day 3. In such case, the cDNA amount injected to the oocytes should be reduced by 20%.
1). 8 oocytes were placed in 8 chambers of OpusXpress and superfused with Modified Barth's Saline (MBS) at 3 mL/min. Glass electrodes back-filled with 3M KCl (0.5-3 megaohms) were used.
1). New oocytes were used to run new test.
3). […] Oocytes were washed with MBS for 5-10 min.
4). […] Itest was divided by IGABA to obtain potentiation (%).
Test Compounds at Multiple Doses • 1). Repeat the above steps 1), 2) and 3) in the control test. • 2). […] Divide Itest by IGABA to obtain potentiation (%). • 3). Discard all tested oocytes, new oocytes were used and the above steps 1) and 2) were repeated to test second concentration of the same compound. Each oocyte was used for only one concentration test for a single test compound. The steps were repeated for other test compounds.

T1 sequence (P31644 32-462): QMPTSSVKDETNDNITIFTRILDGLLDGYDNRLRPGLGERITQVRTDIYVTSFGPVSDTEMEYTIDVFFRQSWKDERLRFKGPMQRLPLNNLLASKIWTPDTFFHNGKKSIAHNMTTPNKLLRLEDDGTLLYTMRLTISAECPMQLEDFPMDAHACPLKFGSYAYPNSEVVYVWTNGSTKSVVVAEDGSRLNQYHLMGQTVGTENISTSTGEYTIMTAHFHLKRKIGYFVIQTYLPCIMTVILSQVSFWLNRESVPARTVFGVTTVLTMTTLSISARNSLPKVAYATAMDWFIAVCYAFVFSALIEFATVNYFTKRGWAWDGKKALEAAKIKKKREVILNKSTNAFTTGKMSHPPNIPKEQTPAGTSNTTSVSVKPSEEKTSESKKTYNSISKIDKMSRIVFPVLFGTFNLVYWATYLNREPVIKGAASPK
T1 sequence (P47870 25-512, further chain): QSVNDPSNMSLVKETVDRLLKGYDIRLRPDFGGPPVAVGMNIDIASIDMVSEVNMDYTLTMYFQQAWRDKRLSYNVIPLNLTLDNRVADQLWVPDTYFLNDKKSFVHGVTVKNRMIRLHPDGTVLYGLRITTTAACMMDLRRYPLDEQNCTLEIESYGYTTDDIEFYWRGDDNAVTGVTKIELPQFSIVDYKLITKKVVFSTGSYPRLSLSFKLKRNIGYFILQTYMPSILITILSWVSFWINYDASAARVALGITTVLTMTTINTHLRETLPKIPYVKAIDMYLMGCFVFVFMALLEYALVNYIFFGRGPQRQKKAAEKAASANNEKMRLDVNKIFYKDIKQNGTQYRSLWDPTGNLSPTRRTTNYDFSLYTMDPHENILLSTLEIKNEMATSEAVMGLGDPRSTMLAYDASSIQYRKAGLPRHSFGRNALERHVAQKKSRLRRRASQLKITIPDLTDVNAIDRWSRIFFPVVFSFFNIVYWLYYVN
T1 sequence (P18507 40-475): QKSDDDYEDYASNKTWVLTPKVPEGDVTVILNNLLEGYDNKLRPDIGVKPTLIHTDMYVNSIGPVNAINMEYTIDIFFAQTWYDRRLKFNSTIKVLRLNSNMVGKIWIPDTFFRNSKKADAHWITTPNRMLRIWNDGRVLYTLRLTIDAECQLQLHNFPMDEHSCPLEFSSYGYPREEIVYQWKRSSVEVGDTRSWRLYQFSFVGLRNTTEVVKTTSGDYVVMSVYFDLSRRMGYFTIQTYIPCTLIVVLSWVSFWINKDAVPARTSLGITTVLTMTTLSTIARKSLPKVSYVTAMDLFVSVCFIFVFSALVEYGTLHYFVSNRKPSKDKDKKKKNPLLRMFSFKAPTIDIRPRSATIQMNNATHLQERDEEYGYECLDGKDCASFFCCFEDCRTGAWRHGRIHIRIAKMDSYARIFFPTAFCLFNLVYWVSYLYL
Chain of α5β3γ2 GABAA receptors (P31644 32-462): as the sequence (P31644 32-462) above
Chain of α5β3γ2 GABAA receptors (P28472 26-473 partner): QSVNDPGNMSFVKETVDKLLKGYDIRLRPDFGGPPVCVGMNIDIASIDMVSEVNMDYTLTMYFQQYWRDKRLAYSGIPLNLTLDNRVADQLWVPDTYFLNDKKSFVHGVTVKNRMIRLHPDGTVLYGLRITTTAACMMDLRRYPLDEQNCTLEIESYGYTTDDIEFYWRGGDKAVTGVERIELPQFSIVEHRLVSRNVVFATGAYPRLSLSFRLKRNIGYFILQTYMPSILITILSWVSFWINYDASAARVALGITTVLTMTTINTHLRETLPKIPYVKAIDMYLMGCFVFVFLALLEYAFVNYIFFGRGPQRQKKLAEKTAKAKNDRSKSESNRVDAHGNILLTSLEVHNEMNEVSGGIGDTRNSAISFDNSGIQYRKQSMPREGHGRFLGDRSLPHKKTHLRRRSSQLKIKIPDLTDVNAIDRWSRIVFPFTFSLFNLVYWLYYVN
Chain of α5β3γ2 GABAA receptors (P18507 40-475): as the sequence (P18507 40-475) above

| SMILES | Ki (α5β3γ2 GABAA receptors) [nM] | activation at 0.1 µM (GABAA receptors (α5β2γ2)) [%] |
| --- | --- | --- |
| C#Cc1ccc2c(c1)-c1nnc(COC)n1Cc1c(C3=N[C@@H](c4ccccc4)CO3)ncn1-2 [Compound 301] | < 100 | 5 to 20 |
| FC(F)(F)c1ccc2c(c1)-n1nncc1Cc1c(C#CC3(c4ccccc4)CC3)ncn1-2 [Compound 503] | < 100 | 5 to 20 |
| COCc1nnc2n1Cc1c(C#Cc3cnc(C)s3)ncn1-c1ccc(Cl)cc1-2 [Compound 608] | < 100 | 20 to 50 |
| COCc1nnc2n1Cc1c(C#Cc3cnc4occc4c3)ncn1-c1ccc(Cl)cc1-2 [Compound 680] | < 100 | 20 to 50 |
| COCc1nnn2c1Cc1c(C#CC(C)(C)C)ncn1-c1ccc(Cl)cc1-2 [Compound 640] | < 100 | 20 to 50 |
| COc1ccc2c(c1)-n1nncc1Cc1c(C#Cc3cnc(C)[nH]3)ncn1-2 [Compound 668] | < 100 | > 50 |
| COc1ccc(C#Cc2ncn3c2Cc2cnnn2-c2cc(OC(F)F)ccc2-3)cc1 [Compound 498] | < 100 | 5 to 20 |
| C[C@]1(c2ccccc2)COC(c2ncn3c2Cc2cnnn2-c2cc(Cl)ccc2-3)=N1 [Compound 623] | < 100 | 5 to 20 |
| COCc1nnc2n1Cc1c(C#Cc3ccnc(OC)c3)ncn1-c1ccc(OC)cc1-2 [Compound 567] | < 100 | 5 to 20 |
| COCc1nnc2n1Cc1c(C#Cc3cnc(C)n3C)ncn1-c1ccc(OC)cc1-2 [Compound 672] | < 100 | > 50 |
| FC(F)(F)c1ccc2c(c1)-n1nncc1Cc1c(-c3ncco3)ncn1-2 [Compound 475] | < 100 | 5 to 20 |
| Fc1ccc([C@@H]2COC(c3ncn4c3Cc3cnnn3-c3cc(Cl)ccc3-4)=N2)cc1 [Compound 522] | < 100 | 5 to 20 |
| Cc1cncc(C#Cc2ncn3c2Cc2cnnn2-c2cc(Cl)ccc2-3)c1 [Compound 618] | < 100 | 20 to 50 |
| COc1ccc2c(c1)-n1nncc1Cc1c(C3=N[C@@H](c4ccc(F)cc4)CO3)ncn1-2 [Compound 367] | < 100 | 5 to 20 |
| COCc1nnn2c1Cc1c(C3=NC[C@H](c4ccc(Cl)cc4)O3)ncn1-c1ccc(Cl)cc1-2 [Compound 635] | < 100 | 5 to 20 |
| COCc1nnc2n1Cc1c(C#Cc3cccc(C)n3)ncn1-c1ccc(Cl)cc1-2 [Compound 596] | < 100 | > 50 |
| COCc1nnc2n1Cc1c(C#Cc3ccn4ccnc4c3)ncn1-c1ccc(Cl)cc1-2 [Compound 679] | < 100 | > 50 |
| COc1ccc2c(c1)-n1nncc1Cc1c(C3=N[C@H](c4cccc(Cl)c4)CO3)ncn1-2 [Compound 516] | < 100 | 5 to 20 |
| Fc1ccc(C#Cc2ncn3c2Cc2cnnn2-c2cc(C(F)(F)F)ccc2-3)cc1 [Compound 501] | < 100 | 20 to 50 |
| COc1cccc(C2CN=C(c3ncn4c3Cc3cnnn3-c3cc(Cl)ccc3-4)O2)n1 (stereo not shown) [Compound 631] | < 100 | 5 to 20 |
| COc1ccc(C#Cc2ncn3c2Cc2cnnn2-c2cc(OC)ccc2-3)nc1 [Compound 531] | < 100 | 5 to 20 |
| COCc1nnc2n1Cc1c(C#Cc3ccc(=O)n(C)c3)ncn1-c1ccc(Cl)cc1-2 [Compound 677] | < 100 | 5 to 20 |
| FC(F)(F)c1ccc(C#Cc2ncn3c2Cc2cnnn2-c2cc(Cl)ccc2-3)nc1 [Compound 701] | < 100 | 5 to 20 |
